Patent US20140294729A1, “METHODS FOR IDENTIFICATION AND USE OF AGENTS TARGETING CANCER STEM CELLS” (Whitehead Institute for Biomedical Research, priority 2008, published 2014)
Entries after “also recorded” stand apart in the source; their conditions may differ.

Assays:
HMLER cells [1] = assay: FACS of the CD44+/CD24- CSC population in treated HMLER cells; type: cell-based, human
Description: (§1) FIGS. 6A and 6B depict effects of salinomycin on the CSC population in HMLER cell line. (FIG. 6A) HMLER cells were treated with vehicle control (dmso), salinomycin or paclitaxel at the indicated concentrations for 15 days. FACS analysis were performed at the end of treatment to gauge the CD44+/CD24− CSC population (right panels). Note that salinomycin decreases the CD44+/CD24− population from a basal of 4.9% to 0.2%. Treated cultures were also subjected to the mammosphere formation assay (left panels). Number of mammopsheres formed per 1000 cells from each culture are indicated below the representative photographs of assay wells. (FIG. 6B) Growth rates of HMLER cultures after treatment with vehicle control (dmso), salinomycin or paclitaxel at the indicated concentrations in (A) for 15 days.
We then turned to the critical question of whether the compounds had the general ability to inhibit CSCs in breast cancer cell lines. […] We next compared the effects of salinomycin, control vehicle DMSO and paclitaxel on HMLER cells. […] The CD44+/CD24− fraction was thus 360-fold lower following treatment with salinomycin than with paclitaxel (FIG. 6A). Proliferation of the bulk population was not inhibited following treatment with salinomycin relative to either vehicle- or paclitaxel-treatment (FIG. 6B).
(§2) The anti-CD44 (clone G44-26) antibody conjugated to APC and the anti-CD24 antibody (clone ML5) conjugated to PE used for FACS analysis were obtained from BD Bioscience and used according to the manufacturer's instructions. Propidium Iodide (5 ug/ml) was included in the staining protocol to distinguish live cells.

SUM159 cells = assay: FACS of the CD44hi/CD24lo fraction in treated SUM159 cells; type: cell-based; settings: for percent of cells in the CD44hi/CD2410 fraction relative to DMSO controls: FIGS. 5C and 5D
Excerpt: FIG. 5A depicts flow cytometry analysis of Sum159, MDA-MB-231 and T47D cell lines with respect to cell surface expression of CD44 and CD24. Note that while the majority of cells in Sum159 and MDA-MB-231 line contain large amounts of CSCs, T47D cells have very few such cells. FIG. 5B depicts dose response curves of Sum159, MDA-MB-231 and T47D cell treated with Salinomycin.
To further characterize the effects of compound treatment on cancer cells, we conducted FACS analyses on SUM159 cells treated with salinomycin, abamectin, taxol, or DMSO.
as §2

HMLER cells [2] = assay: Mammosphere formation assay of treated HMLER cells; type: cell-based, human
Description: as §1
We examined the ability of breast cancer cells to form mammospheres following treatment with salinomycin.
(§3) Mammosphere culture was performed as described (Dontu et al., 2003), except that the culture medium contained 0.9% methyl cellulose (Stem cell technologies) to prevent cell aggregation. […] were plated per well in 96-well plates. The mammospheres were cultured for 7-10 days and then photographed and counted.

[3] = tested on: SUM159 breast cancer cells; assay: Mammosphere formation assay with SUM159 breast cancer cells; type: cell-based
Description: (§4) To directly evaluate the effect of salinomycin on cancer stem cell populations, we functionally assayed for cancer stem cell activity in salinomycin, taxol, or DMSO-treated cultures.
as §3

MCF7Ras cells = assay: Mammosphere-forming potential of treated MCF7Ras cells; type: cell-based; settings: FIG. 14
Description: (§5) FIG. 14A depicts the mammosphere forming potential of parental HMLER cells treated with either DMSO, paclitaxel (taxol) or salinomycin at the specified doses. FIG. 14B depicts MCF7Ras or 4T1 cells that were treated with DMSO, paclitaxel or salinomycin. Mammosphere-forming potential is shown below.
as §3
(§6) The mammosphere forming potential of parental HMLER cells treated with either DMSO, paclitaxel (taxol) or salinomycin was also examined at various doses. Salinomycin, but not paclitaxel inhibited mammosphere formation in MCF7Ras or 4T1 cells. (FIG. 14.) The effects of salinomycin, paclitaxel or vehicle control treatments on in vivo tumor formation by SUM159 breast cancer cells injected in mice was determined. […] (FIG. 15A.) The mammosphere-forming potential of cancer cells obtained from SUM159 tumors from salinomycin, paclitaxel or DMSO-treated mice was also determined (FIG. 15B.)

4T1 cells = assay: Mammosphere-forming potential of treated 4T1 cells; type: cell-based; settings: FIG. 14
Description: as §5, §3, §6

[4] = tested on: CSCs in breast cancer cell populations; assay: In vivo tumor-seeding ability after in vitro drug treatment (serial dilution, subcutaneous injection); set-up: species or system NOD/SCID mice
Description: Finally, we also directly assessed the functional presence of CSCs by assaying in vivo tumor-seeding ability following drug treatment. Cells were treated in vitro for 5 days and then injected subcutaneously into NOD/SCID mice. […] The proportion of functional CSCs was thus reduced by 1000-fold following salinomycin treatment compared to paclitaxel treatment.
as §4
We have established several downstream assays for the follow-up evaluation of screen hits with respect to their effects on cancer stem cells: (1) Treat cells in culture for a period of time with screen hits (e.g., compounds, compositions, antibodies, shRNAs, etc.), including the necessary controls, and then allow the cells to recover for a period (e.g., up to 12 hours, up to 24 hours, up to 48 hours, up to 72 hours etc.), and then perform FACS with markers that identify populations enriched for cancer stem cells (for example, but not limited to, CD44+/CD24− in the case of breast cancer). (2) Treat cells in culture for a period of time with screen hits, allow them to recover for a prescribed period of time, and then perform colony formation assays in suspension in the absence of chemical compound (for breast cancer cells, these assays are referred to as mammosphere formation assays). (3) Treat cells in culture for a period of time with screen hits, allow them to recover for a prescribed period of time, and then inject cells at various cell numbers subcutaneously into immunocompromised animals and evaluate the frequency of tumor formation. The number of injected cells could include 10̂6, 10̂5, 10̂4, 10̂3, and 10̂2 cells. Using follow-up assays, such as those disclosed herein, one can evaluate whether or not a screen hit (or any drug with potential CSC-directed activity) is a bonafide inhibitor of cancer stem cells.

[5] = tested on: SUM159 breast cancer cells; assay: In vivo tumor formation by SUM159 breast cancer cells in treated mice; settings: FIG. 15A
Description: FIG. 15A depicts in vivo tumor formation by SUM159 breast cancer cells in mice that were treated with salinomycin, paclitaxel or vehicle. […] FIG. 15B depicts the mammosphere-forming potential of cancer cells obtained from SUM159 tumors from salinomycin, paclitaxel or DMSO-treated mice.
as §6

Structure (SMILES) | increase of the CSC-fraction (CD44+/CD24−) (HMLER cells [1]; FIG. 6A) | percent of cells in the CD44hi/CD2410 fraction relative to DMSO controls (SUM159 cells) | mammosphere size (HMLER cells [2]) | effect on the number of mammospheres (HMLER cells [2]; FIG. 6A) | number of cells capable of forming colonies in suspension culture relative to DMSO [3] | mammosphere formation (MCF7Ras cells) | mammosphere formation (4T1 cells) | increase in tumor-seeding ability relative to controls ([4]; cells treated in vitro for 5 days, data not shown) | CSC functional activity / CSC number in tumor-formation dilution series relative to DMSO-treated controls ([4]; mouse, in vivo) | CSC functional activity / CSC number in tumor-formation dilution series relative to DMSO-treated controls ([4]; mouse, in vivo, listed as taxol) | tumor volume / tumor growth compared with vehicle control [5] | CD44+/CD24− population after treatment (basal 4.9%) (HMLER cells [1]; 15 days) | CD44+/CD24− fraction lower following salinomycin than with paclitaxel (HMLER cells [1]; FIG. 6A) | decrease of the proportion of CD44+/CD24− cells relative to vehicle-treated controls (HMLER cells [1]; FIG. 6A) | increase in the CSC-depleted fraction (SUM159 cells) | percent of cells in the CD44hi/CD2410 fraction relative to DMSO controls (SUM159 cells; listed as Salinomycin) | decrease in the number of mammospheres relative to controls (HMLER cells [2]; FIG. 6A) | decrease in tumor-seeding ability (CSCs) relative to vehicle/control treatment ([4]; cells treated in vitro for 5 days, injected subcutaneously, data not shown) | reduction of functional CSCs following salinomycin compared to paclitaxel treatment ([4]; mouse, in vivo)
CC(=O)O[C@H]1C(=O)[C@@]2(C)[C@H]([C@H](OC(=O)c3ccccc3)[C@]3(O)C[C@H](OC(=O)[C@H](O)[C@@H](NC(=O)c4ccccc4)c4ccccc4)C(C)=C1C3(C)C)[C@]1(OC(C)=O)CO[C@@H]1C[C@@H]2O [paclitaxel] | 18 fold | did not significantly affect | significant increase | neither paclitaxel nor vehicle treatment affected the number of mammospheres | increase | not | not | ~10 fold | induced an increase in CSCs | opposite effect | reduced tumor volume | – | – | – | – | – | – | – | –
CC[C@@H](C(=O)[C@@H](C)[C@@H](O)[C@H](C)[C@@H]1O[C@@H]([C@@H](CC)C(=O)O)CC[C@@H]1C)[C@H]1O[C@]2(C=C[C@@H](O)[C@]3(CC[C@@](C)([C@H]4CC[C@](O)(CC)[C@H](C)O4)O3)O2)[C@H](C)C[C@@H]1C [salinomycin] | – | significantly reduced | – | – | significantly reduced | inhibited | inhibited | – | significantly reduced | – | reduced tumor volume; also recorded: inhibition of tumor growth | 0.2% | 360 fold | 20 fold | ~3 fold | decrease in the CSC population | ~10 fold | 100 fold | 1000 fold
